Experimental data reported in patent publication US6576260B2 (Gruenenthal GmbH, priority 1999, dated 2003).

Assay: Intrinsic active substance release in water (USP <1087> intrinsic dissolution)
Assay type: physicochemical
Conditions: demineralized water, 37° C.±0.5° C.; gradient of cumulative release up to 10% released
Procedure: The intrinsic release of each of the two active substances is calculated from the gradient of the cumulative active substance release up to and including the time at which 10% of the […] have been released. It is given below as the release rate in mg·min^−1·cm^−2.

Compound: COc1cccc([C@@]2(O)CCCC[C@@H]2CN(C)C)c1.Cl (racemic) [Tramadol hydrochloride, (1RS,2RS)-2-[(dimethylamino)methyl]-1-(3-methoxyphenyl)cyclohexanol hydrochloride]
- Intrinsic release in water (release rate): 21 mg · min^−1 · cm^−2

Compound: COc1cccc(C2(O)CCCCC2CN(C)C)c1.O=C1NS(=O)(=O)c2ccccc21 (centres unmarked) [Tramadol saccharinate, tramadol saccharinate]
- Intrinsic release in water (release rate): 2 mg · min^−1 · cm^−2
